{
  "source": "patent US12403115B2",
  "about": "“Asymmetric synthesis and uses of compounds in disease treatments” (Zhejiang Jiachi Development Pharmaceuticals LTD., priority 2017, dated 2025)",
  "key": {"[1]": {"system": "OVX female mice", "experiment": "OVX mice: vulvovagina atrophy (vagina wet mass, H&E sections, thickness of vulvovagina wall)", "type": "in vivo", "conditions": "given by food, three months", "description": "(§1) In this Example, studies have been shown the estrogenic effects of α- and β-anordrins on estrogen-modulated metabolic signaling and tissue atrophy. The ovaries of 7 week old mice were surgically excised. One week post surgery, the mice were given isoflavone, α-anordrin or β-anordrin by food. Body mass, blood glucose and food intake were measured monthly. After three months. Mice were sacrificed. The leg and spine bone, liver, uterus and vagina were harvested.\n(§2) The ovaries of 6 week old mice were excised by surgery. 3 days post surgery drugs were administered by gastric tract injection every day or mixed with food.\n(§3) Vagina was cut at the middle site. Both uterine site and vulvovaginal site were embedded in paraffin at the same direction for H&E section preparation. The thickness of vulvovaginal wall was measured from 40× magnification images of Paraffin-embedded H&E mice vagina sections."}, "[2]": {"system": "OVX female mice", "experiment": "OVX mice: uterus atrophy (uterine wet mass, H&E sections)", "type": "in vivo", "conditions": "three months", "description": "as §1, §2"}, "[3]": {"system": "OVX female mice", "experiment": "OVX mice: blood glucose, blood TG, body mass and food uptake", "type": "in vivo", "description": "as §1\nglucose concentration in medium or total blood from mouse tail was measured using glucose assay kits following manufacturer's instructions (Yicheng, Beijing).\nas §2"}, "[4]": {"system": "OVX female mice", "experiment": "OVX mice: TG accumulation in liver (H&E sections, liver TG)", "type": "in vivo", "conditions": "given by food", "description": "as §1, §2\nThe error was corrected by using internal standard controls."}, "[5]": {"system": "OVX female mice", "experiment": "OVX mice: osteoporosis by micro-CT (BMD, BV/TV)", "type": "in vivo", "conditions": "for prevention of osteoporosis (micro-CT): OVX mice, given by food, three months", "description": "as §1, §2\n(§4) Thighbone was fixed in 1×DPBS containing 3% formaldehyde for two weeks. The fixation solution was exchanged after one week. The density of thighbone was measured by Siemens Inveon Micro-CT. Inveon Research Workplace (IRW) was used to analyze the HU2000 value at the following measurement conditions: 80 KVP, […], 1500 ms exposure time; CCD Readout installation: 2048axial, 2048 binning; FOV Transaxial: 19.03 mm, axial: 19.03 mm, pixels size: 9.29 μm."}, "[6]": {"system": "mice bone", "experiment": "Anastrozole-induced osteoporosis in mice by micro-CT (BMD, BV/TV, Tb.N)", "type": "in vivo", "conditions": "for inhibition of anastrozole-induced osteoporosis (micro-CT): food containing drug plus equal amount of anastrozole, 6 months", "from_the_text": "(§5) Aromatase inhibitors were administrated to ER positive breast in post-menopausal women. […] It was administrated to ER positive breast cancer in post menopausal women. […] Vulvovagina atrophy usually results in infection of vagina and urinary tract. As an example, we tested whether α-anordrin or β-anordrin eliminates anastrozole-induced uterus and vulvovagina atrophy, and osteoporosis. […] Mice were then sacrificed to harvest vagina, leg and spine bone. The tissues were fixed in paraformaldehyde.\nas §4"}, "[7]": {"system": "mouse vagina", "experiment": "Anastrozole-induced vagina atrophy in mice (vagina wet mass, H&E sections)", "type": "in vivo", "conditions": "food containing drug plus equal amount of anastrozole, 6 months", "from_the_text": "as §5, §3"}, "[8]": {"system": "endometrial epithelial cell (EEC)", "conditions": "earlier finding of the applicants, no method given here (cf. reference 21); cited from earlier work"}, "[9]": {"system": "mice uterus EECs", "description": "(§6) Tamoxifen was the first FDA-approved drug for breast cancer patients with positively expressed ER. […] We further tested whether α-anordrin or β-anordrin eliminates tamoxifen-induced EEC mitosis. […] Mice were then sacrificed to harvest uterus and liver. Uterine and liver tissues were fixed.\n(§7) The tissue of mice was excised by surgery and fixed using 4% paraformaldehyde in 1×DPBS (Beijing Solar Bioscience & Technology co., Ltd). Paraffin section preparation and HE staining was performed by GLP laboratory of BK animal model, Inc.\nEEC height was measured from 20-200× magnification EEC images of Paraffin-embedded H&E mice uterus sections."}, "[10]": {"system": "mouse liver", "description": "as §6, §7\n30-50 mg of mouse liver was excised by surgery and homogenized in 1 ml Cholroform:Methanol (2:1) mixture and extracted using 0.5 ml ddH2O. The organic phase was transferred to new tubes and air dried. The amount of TG was measured using kits following manufacturer's instructions. The error was corrected by using internal standard controls."}, "[11]": {"conditions": "combination with equal amount of anastrozole, micro-CT"}, "[12]": {"conditions": "mice, food containing drug plus tamoxifen, 6 months"}},
  "note": "Entries after “also recorded” stand apart in the source; their conditions may differ.",
  "data": [
    {"smiles": "C#C[C@@]1(OC(=O)CC)CC2CCC3C(CC[C@@]4(C)C3CC[C@]4(C#C)OC(=O)CC)[C@@]2(C)C1", "note": "(single isomer, unassigned) [α-anordrin, (2α,17α)-diethynyl-(2β, 17β)-diol-dipropionate-A-nor-5α-androstane]", "values": [
      {"measurement": "prevention of vulvovagina atrophy (uterus and vagina wet mass and H&E staining)", "setting": "[1]", "result": "prevented vulvovagina atrophy; also recorded: dosage dependent activity to prevent the atrophy of vulvovagina"},
      {"measurement": "prevention of uterus atrophy", "setting": "[2]; OVX female mice, lower dosage, compared with sham group", "result": "did not prevent the uterus atrophy"},
      {"measurement": "atrophy symptom in uterus", "setting": "[2]; OVX mice, given by food", "result": "less atrophy symptom in uterus compared with those mice treated by β-anordrin and blank groups"},
      {"measurement": "body mass", "setting": "[3]; after administration of drugs by food", "result": "less and dosage dependent activity to decrease"},
      {"measurement": "blood glucose", "setting": "[3]; given by food", "result": "less and dosage dependent activity to decrease"},
      {"measurement": "blood triglyceride (TG)", "setting": "[3]; given by food", "result": "less and dosage dependent activity to decrease"},
      {"measurement": "amount of liver TG (liver H&E section and statistical analysis)", "setting": "[4]", "result": "decreased the amount of liver TG; also recorded: dosage dependent activity to prevent TG accumulation in liver"},
      {"measurement": "prevention of the decrease of bone volume (BV)/bone trabecula volume (TV) ratio (BV/TV)", "setting": "[5]; OVX female mice, micro-CT", "result": "more activity to prevent the ratio decreasing of bone volume (BV)/bone trabecula volume (TV) (BV/TV) compared with β-anordrin"},
      {"measurement": "prevention of the loss of bone mean density (BMD)", "setting": "[5]; OVX female mice, micro-CT", "result": "more activity to prevent the loss of bone mean density (BMD) compared with β-anordrin"},
      {"measurement": "prevention of osteoporosis (micro-CT)", "setting": "[5]", "result": "prevented osteoporosis; also recorded: more actively to prevent the osteoporosis compared with β-anordrin"},
      {"measurement": "inhibition of anastrozole-induced decrease of BV/TV", "setting": "[6]; [11]", "result": "inhibits anastrozole-induced the ratio decreasing of bone volume (BV)/bone trabecular volume (TV) (BV/TV)"},
      {"measurement": "inhibition of anastrozole-induced decrease of bone trabecula number (Tb.N)", "setting": "[6]; [11]", "result": "inhibits anastrozole-induced the decreasing of bone trabecula number (Tb.N)"},
      {"measurement": "inhibition of anastrozole-induced loss of bone mean density (BMD)", "setting": "[6]; [11]", "result": "inhibits anastrozole-induced the loss of bone mean density (BMD)"},
      {"measurement": "inhibition of anastrozole-induced osteoporosis (micro-CT)", "setting": "[6]", "result": "inhibited anastrozole-induced osteoporosis; also recorded: inhibits anastrozole-induced osteoporosis in bone"},
      {"measurement": "inhibition of anastrozole-induced vagina atrophy (vagina wet mass, H&E sections)", "setting": "[7]", "result": "inhibits anastrozole-induced vagina atrophy"}
    ]},
    {"smiles": "C#C[C@@]1(OC(=O)CC)C[C@@H]2CC[C@@H]3[C@H](CC[C@@]4(C)[C@H]3CC[C@]4(C#C)OC(=O)CC)[C@@]2(C)C1", "note": "[anordrin]", "values": [
      {"measurement": "elimination of tamoxifen-induced endometrial epithelial cell (EEC) mitosis", "setting": "[8]", "result": "can eliminate tamoxifen-induced endometrial epithelial cell (EEC) mitosis"}
    ]},
    {"smiles": "CC/C(=C(\\c1ccccc1)c1ccc(OCCN(C)C)cc1)c1ccccc1", "note": "[TAM, tamoxifen, reference compound]", "values": [
      {"measurement": "appearance of EECs in H&E staining sections", "setting": "[9]; mouse, in vivo", "result": "rough and mitotic"},
      {"measurement": "fatty deposition in liver cells (H&E staining sections)", "setting": "[10]; mouse, in vivo", "result": "high fatty deposition in liver cells"}
    ]},
    {"smiles": "C#C[C@]1(OC(=O)CC)C[C@@H]2CC[C@@H]3[C@H](CC[C@@]4(C)[C@H]3CC[C@]4(C#C)OC(=O)CC)[C@@]2(C)C1", "note": "[β-anordrin, (2β,17α)-diethynyl-(2α,17β)-diol-dipropionate-A-nor-5α-androstane, reference compound]", "values": [
      {"measurement": "prevention of vulvovagina atrophy (uterus and vagina wet mass and H&E staining)", "setting": "[1]", "result": "not β-anordrin prevented vulvovagina atrophy"},
      {"measurement": "amount of liver TG (liver H&E section and statistical analysis)", "setting": "[4]", "result": "not β-anordrin decreased the amount of liver TG"},
      {"measurement": "prevention of osteoporosis (micro-CT)", "setting": "[5]", "result": "not 3-anordrin prevented osteoporosis"},
      {"measurement": "inhibition of tamoxifen-induced EEC mitosis", "setting": "[9]; [12]", "result": "not β-anordrin inhibited tamoxifen-induced EEC mitosis"},
      {"measurement": "inhibition of tamoxifen-induced NASH", "setting": "[10]; [12]", "result": "not β-anordrin inhibited"},
      {"measurement": "inhibition of anastrozole-induced osteoporosis (micro-CT)", "setting": "[6]", "result": "not β-anordrin inhibited anastrozole-induced osteoporosis"},
      {"measurement": "inhibition of anastrozole-induced vagina atrophy (vagina wet mass, H&E sections)", "setting": "[7]", "result": "not β-anordrin inhibited anastrozole-induced vagina atrophy"}
    ]}
  ]
}
